Values quoted from earlier work in patent publication US20240245793A1, “PSD-95 INHIBITORS AND USES THEREOF” (priority 2021, published 2024).
Read-outs that look alike come from different tables or passages of the source. No end group written: not given here.

What was measured:
pMCAO mice = settings: cited from earlier work; for neuroprotective properties: mice, pMCAO, same experimental conditions and dose (3 nmol/g)
PDZ1 and PDZ2 of PSD-95 = settings: in vitro FP assay; read-out: Ki values towards PDZ1 and PDZ2 of PSD-95; cited from earlier work
[1] = system: patients with ischemic stroke undergoing endovascular thrombectomy; settings: cited from earlier work
plasmin = target: T1, plasmin (Homo sapiens, UniProt P00747); settings: plasmin generated by tPA; cited from earlier work
T1 construct: Tissue plasminogen factor (tPA), which generates plasmin from plasminogen
T1 sequence (P00747 581-810 limits assumed, species assumed): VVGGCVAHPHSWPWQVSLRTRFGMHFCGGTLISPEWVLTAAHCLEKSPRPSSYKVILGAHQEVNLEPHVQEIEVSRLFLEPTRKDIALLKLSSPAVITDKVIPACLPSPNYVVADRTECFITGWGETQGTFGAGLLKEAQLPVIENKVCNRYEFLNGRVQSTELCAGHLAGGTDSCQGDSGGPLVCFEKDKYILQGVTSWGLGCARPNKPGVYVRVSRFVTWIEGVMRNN
T1 sequence (P00747 97-580 partner limits assumed, species assumed): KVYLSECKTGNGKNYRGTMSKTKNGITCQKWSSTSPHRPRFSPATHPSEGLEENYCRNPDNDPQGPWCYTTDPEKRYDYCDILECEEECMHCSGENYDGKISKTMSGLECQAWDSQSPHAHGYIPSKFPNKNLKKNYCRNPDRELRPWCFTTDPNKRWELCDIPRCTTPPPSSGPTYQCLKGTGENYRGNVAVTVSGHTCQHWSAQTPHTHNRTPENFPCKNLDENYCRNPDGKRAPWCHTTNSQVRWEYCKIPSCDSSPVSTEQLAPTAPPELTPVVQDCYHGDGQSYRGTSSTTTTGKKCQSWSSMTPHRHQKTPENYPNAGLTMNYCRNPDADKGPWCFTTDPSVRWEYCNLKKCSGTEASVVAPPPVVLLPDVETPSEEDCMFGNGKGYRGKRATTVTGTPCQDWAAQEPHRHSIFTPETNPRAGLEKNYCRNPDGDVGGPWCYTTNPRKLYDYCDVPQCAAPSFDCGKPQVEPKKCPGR

Compound	neuroprotective properties (pMCAO mice)	reaching the brain (pMCAO mice; mouse, in vivo)	Ki (PDZ1 and PDZ2 of PSD-95)	clinical effect ([1]; group not receiving alteplase)	clinical effect ([1]; patients receiving alteplase)	cleavage by plasmin (plasmin)
CC[C@H](C)[C@H](NC(=O)CCOCCOCCOCCOCCOCCC(=O)N[C@H](C(=O)N[C@@H](CCC(=O)O)C(=O)N[C@H](C(=O)N[C@@H](CC(=O)O)C(=O)N[C@H](C(=O)O)C(C)C)[C@@H](C)O)[C@@H](C)CC)C(=O)N[C@@H](CCC(=O)O)C(=O)N[C@H](C(=O)N[C@@H](CC(=O)O)C(=O)N[C@H](C(=O)O)C(C)C)[C@@H](C)O [Compound 1, OPEG4-(IETDV)2]	showed no neuroprotective properties	did not reach the brain				
YGRKKRRQRRRKLSSIESDV [nerinetide]	did not show significant neuroprotective properties		5 to 10 µM	improved functional outcomes, reduced mortality, and reduced infarction volumes	not effective	cleaves nerinetide
